Patent publication US20140255392A1 (BAYER INTELLECTUAL PROPERTY GMBH, priority 2011, published 2014)

Molecular target: T1, human kinase Mps-1 (Homo sapiens, UniProt P33981)
T1 construct: N-terminally GST-tagged human full length recombinant Mps-1 kinase; GST (N); purchased Invitrogen, Karslruhe, Germany PV4071
T1 sequence (P33981 1-857): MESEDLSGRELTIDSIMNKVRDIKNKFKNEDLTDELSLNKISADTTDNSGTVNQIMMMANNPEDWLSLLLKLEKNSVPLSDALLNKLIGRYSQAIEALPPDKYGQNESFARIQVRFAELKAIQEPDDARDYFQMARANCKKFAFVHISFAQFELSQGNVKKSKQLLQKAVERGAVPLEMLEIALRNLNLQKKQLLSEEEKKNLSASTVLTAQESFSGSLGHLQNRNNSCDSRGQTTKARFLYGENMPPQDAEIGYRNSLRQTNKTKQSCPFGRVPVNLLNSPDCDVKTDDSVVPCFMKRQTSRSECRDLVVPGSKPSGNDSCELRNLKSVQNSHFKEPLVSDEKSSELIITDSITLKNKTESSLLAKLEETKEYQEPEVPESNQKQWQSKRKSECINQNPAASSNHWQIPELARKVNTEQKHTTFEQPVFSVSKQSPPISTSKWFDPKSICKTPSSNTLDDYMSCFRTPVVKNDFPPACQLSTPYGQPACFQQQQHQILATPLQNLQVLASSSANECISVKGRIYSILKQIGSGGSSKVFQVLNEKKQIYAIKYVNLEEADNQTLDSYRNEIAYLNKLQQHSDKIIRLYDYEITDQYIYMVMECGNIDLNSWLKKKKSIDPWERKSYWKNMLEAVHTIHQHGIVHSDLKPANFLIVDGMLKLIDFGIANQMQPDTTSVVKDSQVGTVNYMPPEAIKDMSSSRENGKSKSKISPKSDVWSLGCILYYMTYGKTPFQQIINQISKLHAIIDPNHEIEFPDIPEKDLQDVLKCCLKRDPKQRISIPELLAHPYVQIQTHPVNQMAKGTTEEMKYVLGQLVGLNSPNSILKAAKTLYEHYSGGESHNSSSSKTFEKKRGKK
Test: Mps-1 kinase assay (TR-FRET)
Format: biochemical
Conditions: N-terminally GST-tagged human full length recombinant Mps-1; 10 μM ATP; 1 μM peptide substrate; 60 min at 22° C.
Procedure: The human kinase Mps-1 phosphorylates a biotinylated substrate peptide. Detection of the phosphorylated product is achieved by time-resolved fluorescence resonance energy transfer (TR-FRET) from Europium-labelled anti-phospho-Serine/Threonine antibody as donor to streptavidin labelled with cross-linked allophycocyanin (SA-XLent) as acceptor. Compounds are tested for their inhibition of the kinase activity.
N-terminally GST-tagged human full length recombinant Mps-1 kinase (purchased from Invitrogen, Karslruhe, Germany, cat. no PV4071) was used. As substrate for the kinase reaction a biotinylated peptide of the amino-acid sequence […] (C-terminus in amide form, purchased from Biosynthan GmbH, Berlin) was used.
The concentration of Mps-1 in the assay was adjusted to the activity of the enzyme lot and was chosen appropriate to have the assay in the linear range, typical enzyme concentrations were in the range of about 1 nM (final conc. in the 5 μl assay volume).
The resulting mixture was incubated 1 h at 22° C. to allow the binding of the phosphorylated peptide to the anti-phospho(Ser/Thr)-Europium-antibody. Subsequently the amount of phosphorylated substrate was evaluated by measurement of the resonance energy transfer from the Europium-labelled anti-phospho(Ser/Thr) antibody to the Streptavidin-XLent.

IC50	SMILES
33.7 nM	CCNC(=O)c1ccc(-c2cnc3c(NCCC(F)(F)F)cc(C#CCO)cn23)cc1C [Example 21, N-ethyl-4-{6-(3-hydroxyprop-1-yn-1-yl)-8-[(3,3,3-trifluoropropyl)amino]imidazo[1,2-a]pyridin-3-yl}-2-methylbenzamide]
50 nM	Cc1cc(-c2cnc3c(NCCC(F)(F)F)cc(C#CCO)cn23)ccc1C(=O)NC1(C)CC1 [Example 22, 4-{6-(3-hydroxyprop-1-yn-1-yl)-8-[(3,3,3-trifluoropropyl)amino]imidazo[1,2-a]pyridin-3-yl}-2-methyl-N-(1-methylcyclopropyl)benzamide]
11.1 nM	Cc1cc(-c2cnc3c(NCCC(F)(F)F)cc(Oc4cccc(F)c4)cn23)ccc1C(=O)NC1CCC1 [Example 24, N-cyclobutyl-4-{6-(3-fluorophenoxy)-8-[(3,3,3-trifluoropropyl)amino]imidazo[1,2-a]pyridin-3-yl}-2-methylbenzamide]
2.9 nM	CNC(=O)c1ccc(-c2cnc3c(NCCC(F)(F)F)cc(Oc4cc(F)ccc4C)cn23)cc1C [Example 25, 4-{6-(5-Fluoro-2-methylphenoxy)-8-[(3,3,3-trifluoropropyl)amino]imidazo[1,2-a]pyridin-3-yl}-N,2-dimethylbenzamide]
4.2 nM	Cc1ccc(F)cc1Oc1cc(NCCC(F)(F)F)c2ncc(-c3ccc(C(=O)NC4(C)CC4)c(C)c3)n2c1 [Example 27, 4-{6-(5-Fluoro-2-methylphenoxy)-8-[(3,3,3-trifluoropropyl)amino]imidazo[1,2-a]pyridin-3-yl}-2-methyl-N-(1-methylcyclopropyl)benzamide]
13.9 nM	Cc1ccc(F)cc1Oc1cc(NCCC(F)(F)F)c2ncc(-c3ccc(C(=O)NC4(C#N)CC4)c(C)c3)n2c1 [Example 28, N-(1-cyanocyclopropyl)-4-{6-(5-fluoro-2-methylphenoxy)-8-[(3,3,3-trifluoropropyl)amino]imidazo[1,2-a]pyridin-3-yl}-2-methylbenzamide]
0.4 nM	Cc1cc(-c2cnc3c(NCCC(F)(F)F)cc(Oc4cccc(F)c4F)cn23)ccc1C(=O)NC1CC1 [Example 30, N-cyclopropyl-4-{6-(2,3-difluorophenoxy)-8-[(3,3,3-trifluoropropyl)amino]imidazo[1,2-a]pyridin-3-yl}-2-methylbenzamide]
1.3 nM	Cc1cc(-c2cnc3c(NCCC(F)(F)F)cc(Oc4cccc(Cl)c4)cn23)ccc1C(=O)NC1CC1 [Example 31, 4-{6-(3-chlorophenoxy)-8-[(3,3,3-trifluoropropyl)amino]imidazo[1,2-a]pyridin-3-yl}-N-cyclopropyl-2-methylbenzamide]
0.9 nM	Cc1cc(-c2cc(NCCC(F)(F)F)c3ncc(-c4ccc(C(=O)NC5CC5)c(C)c4)n3c2)ccc1C(=O)NC1CC1 [Example 32, 4,4′-{8-[(3,3,3-trifluoropropyl)amino]imidazo[1,2-a]pyridine-3,6-diyl}bis(N-cyclopropyl-2-methylbenzamide)]
0.7 nM	Cc1cc(-c2cnc3c(NCCC(F)(F)F)cc(Oc4ccccc4)cn23)ccc1C(=O)NC1CC1 [Example 33, N-cyclopropyl-2-methyl-4-{6-phenoxy-8-[(3,3,3-trifluoropropyl)amino]imidazo[1,2-a]pyridin-3-yl}benzamide]
6.2 nM	CNC(=O)c1ccc(-c2cnc3c(NCCC(F)(F)F)cc(Oc4cccc(Cl)c4)cn23)cc1C [Example 34, 4-{6-(3-chlorophenoxy)-8-[(3,3,3-trifluoropropyl)amino]imidazo[1,2-a]pyridin-3-yl}-N,2-dimethylbenzamide]
6.3 nM	CCNC(=O)c1ccc(-c2cnc3c(NCCC(F)(F)F)cc(Oc4cccc(Cl)c4)cn23)cc1C [Example 35, 4-{6-(3-chlorophenoxy)-8-[(3,3,3-trifluoropropyl)amino]imidazo[1,2-a]pyridin-3-yl}-N-ethyl-2-methylbenzamide]
